Data published in BindingDB's records for doi:10.1073/pnas.0805677105 (Burnham Institute For Medical Research, 2008).

Tests used:
[1] = biological target: T1, Mitogen-activated protein kinase 8 (Homo sapiens, UniProt P45983); test: In Vitro Kinase Assay (LanthaScreen Kinase Assay); conditions: pH 7.5; 22 °C
[2] = biological target: T1, Mitogen-activated protein kinase 8; test: DELFIA Assay (Dissociation Enhanced Lanthanide Fluoro-Immuno Assay); conditions: pH 7.8
Experimental: Compound was evaluated for its ability to disrupt the interaction of pepJIP1 with JNK1 by using DELFIA assay. DELFIA is a heterogeneous assay whereby a biotin-linked pepJIP1 is adsorbed onto a streptavidin-coated plate followed by incubation with GST-JNK1. […] Controls include unlabeled peptide and blanks receiving no compounds.

T1 sequence (P45983 whole entry): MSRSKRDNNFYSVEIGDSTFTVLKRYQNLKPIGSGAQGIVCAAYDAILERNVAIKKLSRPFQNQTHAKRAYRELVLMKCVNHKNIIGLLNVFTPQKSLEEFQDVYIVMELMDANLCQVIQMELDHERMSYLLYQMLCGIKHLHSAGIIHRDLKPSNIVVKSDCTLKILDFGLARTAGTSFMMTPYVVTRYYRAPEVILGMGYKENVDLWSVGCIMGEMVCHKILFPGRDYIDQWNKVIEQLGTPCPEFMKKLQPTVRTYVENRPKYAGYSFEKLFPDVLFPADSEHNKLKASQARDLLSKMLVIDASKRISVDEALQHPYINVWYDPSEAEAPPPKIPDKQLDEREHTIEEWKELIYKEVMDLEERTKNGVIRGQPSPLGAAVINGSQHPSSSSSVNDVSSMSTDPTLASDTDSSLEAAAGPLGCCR

| Compound | IC50 [1] [µM] | IC50 [2] [µM] |
| --- | --- | --- |
| Cc1nc(Sc2nnnn2-c2ccccc2)sc1C(=O)O [4-methyl-2-[(1-phenyl-1H-1,2,3,4-tetrazol-5-yl)sulfanyl]-1,3-thiazole-5-carboxylic acid] | > 100 | 7.5 |
| c1ccc(CSc2nnnn2-c2ccccc2)cc1 [5-(benzylsulfanyl)-1-phenyl-1H-1,2,3,4-tetrazole] | > 100 | > 25 |

Next, values leading:

| IC50 [1] [µM] | IC50 [2] [µM] | Compound |
| --- | --- | --- |
| > 100 | > 25 | O=c1[nH]nc(Sc2ccc([N+](=O)[O-])s2)n1-c1ccc2c(c1)OCCO2 [4-(2,3-dihydro-1,4-benzodioxin-6-yl)-5-[(5-nitrothiophen-2-yl)sulfanyl]-4H-1,2,4-triazol-3-ol] |
| 3.1 | 0.237 | O=c1[nH]nc(Sc2ncc([N+](=O)[O-])s2)n1-c1ccccc1 [5-[(5-nitro-1,3-thiazol-2-yl)sulfanyl]-4-phenyl-4H-1,2,4-triazol-3-ol] |
| 3.3 | 0.183 | O=[N+]([O-])c1cnc(Sc2nnnn2-c2ccccc2)s1 [5-nitro-2-[(1-phenyl-1H-1,2,3,4-tetrazol-5-yl)sulfanyl]-1,3-thiazole] |
